According to BindingDB's records for doi:10.1021/jm1001698 (Institute of Health Sciences, 2010):
pIC50: −log10 of the molar value.

Target: Bcl-xL (Homo sapiens)
Assay: Displacement of FITC-labeled Bak-BH3 peptide from Bcl-XL after 1 hr by fluorescence polarization assay

pIC50: 5.75
SMILES: C=c1c(-c2c(O)c3c(C=N[C@@H]4C(=O)N5[C@@H]4SC(C)(C)[C@@H]5C(=O)O)c(O)c(O)c(=C(C)C)c3c(O)c2=C)c(O)c2c(C=N[C@@H]3C(=O)N4[C@@H]3SC(C)(C)[C@@H]4C(=O)O)c(O)c(O)c(=C(C)C)c2c1O [sodium(2S,2'S,5R,5'R,6R,6'R)-6,6'-((1E,1'E)-(6,6',7,7'-tetrahydroxy-5,5'-diisopropyl-3,3'-dimethyl-1,1',4,4'-tetraoxo-1,1',4,4'-tetrahydro-2,2'-binaphthyl-8,8'-diyl)bis(methan-1-yl-1-ylidene)bis(azan-1-yl-1-ylidene))bis(3,3-dimethyl-7-oxo-4-thia-1-azabicyclo[3.2.0]heptane-2-carboxylate)]
